Results on 2 compounds are retold here after patent publication US9173879B2, “Crystalline forms of (S)-7-([1,2,4]triazolo[1,5-a ]pyridin-6-yl)-4-(3,4-dichlorophenyl)-1,2,3,4-tetrahydroisoquinoline and use thereof” (Bristol-Myers Squibb Company, priority 2009, dated 2015).

The subject of one test is SERT. As to the kind of experiment: Occupancy assay, ex vivo binding in brain tissue, SERT. To be noted: dose 1 mg/kg, time point 3 hour. The text has this: (§1) The general procedure for brain tissue collection and transporter occupancy assessment is briefly described as follows. Mice were sacrificed by asphyxiation in CO2, rats by decapitation and dogs by IV injection of euthanasia solution. For mice and rats, after the brains were removed from the skull, the forebrain tissue (removal of the brainstem and cerebellum) was used for SERT, NET, and DAT occupancy assessment. In dogs, the striatum was dissected for DAT occupancy and the remaining forebrain tissue (without the striatum, brainstem, and cerebellum) was used for SERT and NET occupancy assessment. The brain tissues were frozen in chilled isopentane and stored at −80° C. until homogenization.
(§2) The brain tissues were thawed and then homogenized using a polytron homogenizer (Kinematica). Sample aliquots were frozen immediately and stored at −80° C. Protein content was measured for each sample using a Coomassie protein assay kit (Pierce).
(§3) On the day of ex vivo binding for occupancy assessment, frozen sample aliquots were thawed and needle homogenized, and 100 μg of the tissue was incubated for SERT, NET, and DAT binding under assay conditions summarized in Table 1. […] Radioligand was measured using a Wallac Microbeta liquid scintillation counter.
(§4) The specific binding was calculated by subtracting the value of the non-specific binding from that of the total binding in each sample. […]

The subject of another test is DAT. As to the kind of experiment: Occupancy assay, ex vivo binding in brain tissue, DAT. Particulars: dose 1 mg/kg, time point 3 hour.
Text: as §1, §2, §3, §4

A further test concerns NET. Briefly: Occupancy assay, ex vivo binding in brain tissue, NET. Particulars: dose 1 mg/kg, time point 3 hour.
Text: as §1, §2, §3, §4

Test [1] can be described thus: Mouse tail suspension assay. The test is classed as in vivo. Particulars: male Swiss Webster mice, acute administration. The procedure: Male Swiss Webster mice were housed 3-4 per cage in rooms maintained at a constant temperature (21-23° C.) and humidity (50±10%) on a 12-hour light/dark cycle. Animals had ad libitum access to water and food throughout studies. On the day of testing, they were brought into the testing room and allowed to acclimate for 1 hour. To begin testing, the tail was attached to a piece of tape which was then attached to a hook on the ceiling of a sound-attenuated chamber. Immobility was automatically recorded using the Med Associates software. Compounds were administered acutely at a fixed pretreatment interval before session.

In a further test the target is hSERT (Homo sapiens (Human), UniProt P31645). Briefly: SERT radioligand binding assay ([125I]RTI-55, HEK-293 membranes). As for the experimental part: (§5) Recombinant HEK-293 cells expressing either the hSERT, hDAT, or hNET proteins were harvested from T-175 flasks as follows. The medium was removed from the flasks and the cells rinsed with HBSS without Ca and without Mg. The cells were then incubated for 5-10 minutes in 10 mM Tris-Cl, pH 7.5, 5 mM EDTA before the cells were lifted with a combination of pipetting and scraping, as needed. The cell suspension was collected into centrifuge bottles and homogenized for 30 seconds with a Polytron homogenizer. The suspension was centrifuged for 30 minutes at 32,000×g, 4° C. The supernatant was decanted and the pellet resuspended and homogenized in 50 mM Tris-Cl, pH 7.5, 1 mM EDTA for 10 seconds. The suspension was then centrifuged again for 30 minutes at 32,000×g, 4° C. The supernatant was decanted and the pellet resuspended in 50 mM Tris-Cl, pH 7.5, 1 mM EDTA and briefly homogenized. A Bradford assay (Bio-rad) was performed and the membrane preparation diluted to 2 mg/ml with 50 mM Tris-Cl, pH 7.5, 1 mM EDTA. […]
Compounds were dissolved in 100% DMSO at a concentration 100 times the desired highest assay concentration, serially diluted 1:3 in 100% DMSO, and 0.4 μl/well of each solution was dispensed to a Nunc polypropylene, round bottom, 384-well plate. […] The plates were air-dried overnight, 12 μl/well of MicroScint scintillation fluid added, and the plates counted in a Trilux. […]

The next test deals with hDAT (Homo sapiens (Human), UniProt Q01959). Briefly: DAT radioligand binding assay ([125I]RTI-55, HEK-293 membranes). As for the experimental part:
as §5, with “seconds.” for “seconds. The suspension was then centrifuged again for 30 minutes at 32,000×g, 4° C. The supernatant was decanted and the pellet resuspended in 50 mM Tris-Cl, pH 7.5, 1 mM EDTA and briefly homogenized. A Bradford assay (Bio-rad) was performed and the membrane preparation diluted to 2 mg/ml with 50 mM Tris-Cl, pH 7.5, 1 mM EDTA.”
Compounds were dissolved in 100% DMSO at a concentration 100 times the desired highest assay concentration, serially diluted 1:3 in 100% DMSO, and 0.4 μl/well of each solution was dispensed to a Nunc polypropylene, round bottom, 384-well plate. […] The plates were air-dried overnight, 12 μl/well of MicroScint scintillation fluid added, and the plates counted in a Trilux.
(§6) The raw data was normalized to percent inhibition using control wells defining 0% (DMSO only) and 100% (selective inhibitor) inhibition which were run on each plate. […] The radioligand concentration chosen for each assay corresponds to the Kd concentration determined through saturation binding analysis for each assay.

The next test addresses hNET (Homo sapiens (Human), UniProt P23975). As to the kind of experiment: NET radioligand binding assay ([3H]nisoxetine, HEK-293 membranes). As for the experimental part: as §5, with “seconds.” for “seconds. The suspension was then centrifuged again for 30 minutes at 32,000×g, 4° C. The supernatant was decanted and the pellet resuspended in 50 mM Tris-Cl, pH 7.5, 1 mM EDTA and briefly homogenized. A Bradford assay (Bio-rad) was performed and the membrane preparation diluted to 2 mg/ml with 50 mM Tris-Cl, pH 7.5, 1 mM EDTA.”
Compounds were dissolved in 100% DMSO at a concentration 100 times the desired highest assay concentration, serially diluted 1:3 in 100% DMSO, and 1.0 μl/well of each solution was dispensed to a Nunc polypropylene, round bottom, 384-well plate. […] The plates were air-dried overnight, 12 μl/well of MicroScint scintillation fluid added, and the plates counted in a Trilux.
as §6

Structures can show the parent of a compound that is named as a salt.

Sequence of hNET (P23975 whole entry): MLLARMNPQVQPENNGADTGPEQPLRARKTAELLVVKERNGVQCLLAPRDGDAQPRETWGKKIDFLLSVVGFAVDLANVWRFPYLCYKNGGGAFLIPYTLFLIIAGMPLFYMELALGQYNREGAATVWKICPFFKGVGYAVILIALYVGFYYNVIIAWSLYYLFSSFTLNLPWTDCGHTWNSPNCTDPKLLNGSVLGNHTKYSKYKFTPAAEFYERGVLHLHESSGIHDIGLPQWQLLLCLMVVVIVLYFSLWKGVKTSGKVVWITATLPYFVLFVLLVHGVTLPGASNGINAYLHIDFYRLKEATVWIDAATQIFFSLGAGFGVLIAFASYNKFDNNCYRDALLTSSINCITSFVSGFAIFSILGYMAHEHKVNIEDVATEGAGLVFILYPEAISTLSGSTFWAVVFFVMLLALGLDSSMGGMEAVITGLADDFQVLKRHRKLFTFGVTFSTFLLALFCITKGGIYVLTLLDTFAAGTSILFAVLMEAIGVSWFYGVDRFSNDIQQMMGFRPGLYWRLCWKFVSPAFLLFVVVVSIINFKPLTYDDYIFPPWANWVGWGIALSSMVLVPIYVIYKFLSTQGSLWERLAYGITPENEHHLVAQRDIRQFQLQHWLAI
Sequence of hDAT (Q01959 whole entry): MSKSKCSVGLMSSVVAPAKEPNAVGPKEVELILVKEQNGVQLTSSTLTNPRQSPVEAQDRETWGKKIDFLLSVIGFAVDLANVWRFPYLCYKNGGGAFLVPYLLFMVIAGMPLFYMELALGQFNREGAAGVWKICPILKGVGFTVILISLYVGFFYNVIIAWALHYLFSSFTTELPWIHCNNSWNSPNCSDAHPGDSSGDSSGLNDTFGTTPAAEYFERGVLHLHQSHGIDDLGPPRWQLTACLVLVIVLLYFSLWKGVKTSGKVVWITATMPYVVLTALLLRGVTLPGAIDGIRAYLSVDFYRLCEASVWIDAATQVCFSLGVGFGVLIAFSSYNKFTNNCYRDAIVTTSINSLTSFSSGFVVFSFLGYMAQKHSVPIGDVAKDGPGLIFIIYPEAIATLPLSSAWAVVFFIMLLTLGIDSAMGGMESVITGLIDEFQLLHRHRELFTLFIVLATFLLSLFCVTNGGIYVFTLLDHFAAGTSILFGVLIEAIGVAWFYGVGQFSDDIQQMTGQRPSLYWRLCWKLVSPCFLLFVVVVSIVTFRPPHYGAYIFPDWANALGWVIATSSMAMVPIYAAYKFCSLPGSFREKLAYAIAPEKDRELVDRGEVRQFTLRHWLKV

In the case of `Clc1ccc(C2CNCc3cc(-c4ccc5ncnn5c4)ccc32)cc1Cl` (single isomer, unassigned; (+)) [Example 1 (+)-enantiomer, (+)-7-([1,2,4]triazolo[1,5-a]pyridin-6-yl)-4-(3,4-dichlorophenyl)-1,2,3,4-tetrahydroisoquinoline, L-tartrate salt], in the test with SERT, the “SERT Occupancy %” value was 75%. The “DAT Occupancy %” value in the test on DAT is reported as 26%. The “NET Occupancy %” value in the test with NET was 11%. In addition, the “minimum effective dose in the mouse tail suspension study” value in test [1] was 10 mg/kg.
As usually defined, the IC50 is the concentration at which inhibition is half-maximal. For the compound `Clc1ccc(C2CNCc3cc(-c4ccc5ncnn5c4)ccc32)cc1Cl` (single isomer, unassigned; enantiomer 7) [Example 1 (−)-enantiomer, 7-([1,2,4]triazolo[1,5-a]pyridin-6-yl)-4-(3,4-dichlorophenyl)-1,2,3,4-tetrahydroisoquinoline], the IC50 stood at 4.2 nM at hSERT, 105 nM at hDAT and 4.8 nM on hNET. Also, the “SERT Occupancy %” value in the test on SERT was found to be 41%. Besides, in the test with DAT, the “DAT Occupancy %” value is given as 30%. In addition, the “NET Occupancy %” value with NET came out at 33%.
